Data published in patent publication US12258609B2, “Method for producing glycerides of hydroxycarboxylic acids” (KetoLipix Therapeutics GmbH, priority 2019, dated 2025).
Where two headings read alike, the source gives them in different places.

Assays:
[1] = tested on: Panzytrat® 40,000 (pancreatin)
Description: (§1) For the cleavage experiments under near-body conditions two media are investigated: • FaSSGF, which simulates the stomach • FaSSIF, which simulates the intestinal tract
(§2) In addition, in some experiments porcine pancreas is added (Panzytrat® 40,000, Fa. Allergan).
(§3) Cleavage with Gastric Medium: FaSSGF Medium • A so-called FaSSGF medium is prepared according to the manufacturer's specifications from the commercially available corresponding composition (available from Biorelevant, Ltd., Great Britain). • The resulting sample is divided into two batches of equal size. 10 wt.-% of the ternary glyceride mixture based on mono-, di- and triglycerides of 3-hydroxybutyric acid, as described hereinabove, is dissolved in each FaSSGF medium and left in a water bath at 35° C. for 24 hours.

[2] = tested on: Panzytrat® 40,000 (pancreatin); remark: listed apart in the source
Description: as §1
(§4) Both media are from the company Biorelevant®, Ltd. in Great Britain. In addition, in some experiments porcine pancreas is added (Panzytrat® 40,000, Fa. Allergan).
(§5) Cleavage with Bowl Medium: FaSSIF Medium • The FaSSIF medium is prepared according to the manufacturer's instructions (Fa. Biorelevant, Ltd., Great Britain). • The sample obtained is divided into two equally sized preparations. 10 wt.-% of the aforementioned glyceride mixture based on a mixture of mono-, di- and triglycerides of 3-hydroxybutyric acids is dissolved in each FaSSIF medium and left in a water bath at 35° C. for 24 hours.

[3] = tested on: porcine pancreatic lipase type II (PPL type II)
Description: (§6) Further Cleavage with Bowl Medium: FaSSIF Medium • The FaSSIF medium is prepared according to the previous test according to the manufacturer's instructions. • The resulting sample is divided into two batches of equal size. 10 wt.-% of the ternary glyceride mixture of mono-, di- and triglycerides of 3-hydroxybutyric acids according to the invention is dissolved in each FaSSIF medium and left in a water bath at 35° C. for 24 hours.

[4] = tested on: pancreatin (Panzytrat® 40,000); test: Cleavage experiments with pancreatin in water, acid number over time; assay type: in vitro ADME, porcine; conditions: test repeated on individual glycerides, 50° C.
[5] = tested on: porcine pancreatic lipase type II (PPL type II); test: Cleavage experiments with and without porcine pancreatic lipase in FaSSIF medium; conditions: for with enzyme, 24 h, 35° C. / without enzyme 24 h, 35° C. / before splitting 0 h: the 14th table; for with enzyme, 24 h, 35° C.: FaSSIF medium pH 6.5, 1 wt.-% porcine pancreatic lipase type II; for without enzyme 24 h, 35° C.: FaSSIF medium pH 6.5, without enzyme; for before splitting 0 h: FaSSIF medium
Description: as §6

[6] = tested on: Panzytrat® 40,000 (pancreatin); test: Cleavage experiments with and without Panzytrat 40,000 in FaSSGF medium (simulates the stomach, pH 1.6); conditions: for change of content in FaSSGF medium: pH 1.6, 35° C., 24 hours, both with and without pancreatin; for share in chromatogram, FaSSGF m.P. 24 h, 35° C. / share in chromatogram, FaSSGF o.P. 24 h, 35° C. / share in chromatogram, before splitting: the 11th table; for share in chromatogram, FaSSGF m.P. 24 h, 35° C. / share in chromatogram, FaSSGF o.P. 24 h, 35° C.: FaSSGF (stomach, pH = 1.6); for share in chromatogram, FaSSGF m.P. 24 h, 35° C.: with Panzytrat; for share in chromatogram, FaSSGF o.P. 24 h, 35° C.: without Panzytrat; for share in chromatogram, before splitting: starting mixture (crude high-boiling fraction) before splitting; for before splitting: the 12th table, FaSSGF medium
Description: as §1, §2, §3

[7] = tested on: Panzytrat® 40,000 (pancreatin); test: Cleavage experiments with and without Panzytrat 40,000 in FaSSIF medium (simulates the intestinal tract, pH 6.5); conditions: for share in chromatogram, FaSSIF 0 h, Start / share in chromatogram, FaSSIF m.P. 24 h, 35° C. / share in chromatogram, FaSSIF o.P. 24 h, 35° C.: the 11th table, FaSSIF (bowel, pH = 6.5); for share in chromatogram, FaSSIF m.P. 24 h, 35° C.: with Panzytrat; for share in chromatogram, FaSSIF o.P. 24 h, 35° C.: without Panzytrat; for with Panzytrat 24 h, 35° C. / without Panzytrat 24 h, 35° C. / before splitting 0 h: the 13th table, in %; for with Panzytrat 24 h, 35° C.: FaSSIF medium pH 6.5, 1 wt.-% Panzytrat 40,000, 24 h; for without Panzytrat 24 h, 35° C.: FaSSIF medium pH 6.5, without Panzytrat; for before splitting 0 h: FaSSIF medium; for change of content in FaSSIF medium: pH 6.5, 35° C., 24 hours, with and without pancreatin
Description: as §1, §4, §5

[8] = even if several grams are taken; acid and its salts; cited from earlier work

Compound | cleavage of the individual glycerides by pancreatin [4] | with enzyme, 24 h, 35° C. [5] | without enzyme 24 h, 35° C. [5] | before splitting 0 h [5] | share in chromatogram, FaSSGF m.P. 24 h, 35° C. [6] [% area] | share in chromatogram, FaSSGF o.P. 24 h, 35° C. [6] [% area] | share in chromatogram, before splitting [6] [% area] | before splitting [6] [% area] | share in chromatogram, FaSSIF 0 h, Start [7] [% area] | share in chromatogram, FaSSIF m.P. 24 h, 35° C. [7] [% area] | share in chromatogram, FaSSIF o.P. 24 h, 35° C. [7] [% area] | with Panzytrat 24 h, 35° C. [7] | without Panzytrat 24 h, 35° C. [7] | before splitting 0 h [7] | before splitting ([1]; 0 h) [% area] | share in chromatogram, before splitting ([1]; 0 h, 10 wt.-%, pH 1.6) [% area] | share in chromatogram, FaSSGF o.P. 24 h, 35° C. ([1]; 24 h, 10 wt.-%, pH 1.6) [% area] | share in chromatogram, FaSSGF m.P. 24 h, 35° C. ([1]; pig, 24 h, 10 wt.-%, pH 1.6) [% area] | before splitting 0 h ([3]; 0 h, 10 wt.-%, pH 6.5) [%] | without enzyme 24 h, 35° C. ([3]; 24 h, 10 wt.-%, pH 6.5) [%] | also measured
CC(O)CC(=O)OC(C)CC(=O)O (centres unmarked) [3-BHB dimer, dimer of 3-hydroxybutyrate] |  |  |  |  |  |  |  |  |  |  |  |  |  |  |  |  |  |  |  |  | before splitting [1]: 0.71 % area; share in chromatogram, FaSSGF m.P. 24 h, 35° C. [1]: 0.45 % area; share in chromatogram, FaSSGF o.P. 24 h, 35° C. [1]: 0.35 % area; share in chromatogram, before splitting [1]: 0.71 % area; before splitting 0 h [2]: 0.70; share in chromatogram, FaSSIF 0 h, Start [2]: 0.70 % area; share in chromatogram, FaSSIF m.P. 24 h, 35° C. [2]: 0.72 % area; share in chromatogram, FaSSIF o.P. 24 h, 35° C. [2]: 0.72 % area; with Panzytrat 24 h, 35° C. ([2]; pH 6.5): 0.72; without Panzytrat 24 h, 35° C. ([2]; pH 6.5): 0.72; before splitting 0 h [3]: 0.7%; with enzyme, 24 h, 35° C. ([3]; pH 6.5): 0.71%; without enzyme 24 h, 35° C. ([3]; pH 6.5): 0.72%
CC(O)CC(=O)OCC(CO)OC(=O)CC(C)O (centres unmarked) [3-BHB-DG, diglyceride of 3-hydroxybutyric acid] | cleaved by pancreatin to the free 3-hydroxybutyric acid | 59.84 | 60.93 | 60.17 | 44.09 | 37.01 | 55.85 | 55.85 | 60.17 | 61.38 | 60.93 | 61.38 | 60.93 | 60.17 |  |  |  |  |  |  | change of content in FaSSGF medium [6]: significant decrease
CC(O)CC(=O)O (centres unmarked) [3-BHB-FS, 3-hydroxybutyric acid] |  |  |  |  |  |  |  |  | 0.04 | 2.60 | 0.02 | 2.60 | 0.02 | 0.04 | 0.43 | 0.43 | 26.21 | 18.85 | 0.04 | 0.02 | change of content in FaSSGF medium ([1]; pH 1.6): strong increase; change of content in FaSSIF medium with porcine pancreatic lipase ([3]; pH 6.5): slight increase; with enzyme, 24 h, 35° C. ([3]; pig, 24 h, 10 wt.-%, pH 6.5): 1.79%; duration of ketosis [8]: about three to four; conversion or cleavage, free acid formed ([7]; FaSSIF conditions using Panzytrat): 2.6%; change of content in FaSSIF medium [7]: slight increase
CC(O)CC(=O)OCC(O)CO (centres unmarked) [3-BHB-MG, monoglyceride of 3-hydroxybutyric acid] | cleaved by pancreatin to the free 3-hydroxybutyric acid | 15.98 | 12.26 | 13.52 | 18.41 | 21.09 | 18.28 | 18.28 | 13.52 | 14.34 | 12.26 | 14.34 | 12.26 | 13.52 |  |  |  |  |  |  | 
CC(O)CC(=O)OCC(COC(=O)CC(C)O)OC(=O)CC(C)O (centres unmarked) [3-BHB-TG, triglyceride of 3-hydroxybutyric acid] | cleaved by pancreatin to the free 3-hydroxybutyric acid | 13.38 | 16.79 | 16.40 | 10.12 | 7.55 | 16.08 | 16.08 | 16.40 | 12.83 | 16.79 | 12.83 | 16.79 | 16.40 |  |  |  |  |  |  | change of content in FaSSIF medium with porcine pancreatic lipase ([5]; FaSSIF, pH 6.5, 35° C., 24 hours, 1 wt.-% PPL type II): slight decrease; change of content in FaSSGF medium [6]: significant decrease; change of content in FaSSIF medium [7]: slight decrease
CC(O)CC(=O)OC(C)CC(=O)OCC(CO)OC(=O)CC(C)O (centres unmarked) [3-BHB-dimer-DG, diglyceride of the dimer of 3-hydroxybutyric acid] |  | 7.07 | 7.61 | 7.56 | 4.22 | 3.14 | 6.62 | 6.62 | 7.56 | 7.02 | 7.61 | 7.02 | 7.61 | 7.56 |  |  |  |  |  |  | 
CC(O)CC(=O)OC(C)CC(=O)O (centres unmarked) [3-BHB-dimer-FS, dimer of 3-hydroxybutyric acid] |  | 0.17 | 0.00 | 0.00 | 2.51 | 3.25 |  |  |  | 0.17 |  | 0.17 | 0.00 | 0.00 |  |  |  |  |  |  | 
CC(O)CC(=O)OC(C)CC(=O)OCC(O)CO (centres unmarked) [3-BHB-dimer-MG, monoglyceride of the dimer of 3-hydroxybutyric acid] |  | 0.16 | 0.44 | 0.42 | 0.22 | 0.16 | 0.39 | 0.39 | 0.42 |  | 0.44 | 0.00 | 0.44 | 0.42 |  |  |  |  |  |  | 
CCOC(=O)CC(C)O (centres unmarked) [3-BHB-ethyl, 3-hydroxybutyric acid ethyl ester] |  |  |  |  |  |  |  |  | 0.16 | 0.20 | 0.18 | 0.20 | 0.18 | 0.16 | 0.31 | 0.31 | 0.07 | 0.11 | 0.16 | 0.18 | with enzyme, 24 h, 35° C. ([3]; pig, 24 h, 10 wt.-%, pH 6.5): 0.12%
OCC(O)CO [glycerol] |  |  |  |  |  |  |  |  | 0.07 | 0.07 | 0.05 | 0.07 | 0.05 | 0.07 | 0.38 | 0.38 | 0.81 | 0.51 | 0.07 | 0.05 | with enzyme, 24 h, 35° C. ([3]; pig, 24 h, 10 wt.-%, pH 6.5): 0.08%
